Test results as given in patent US8476255B2, “Histone deacetylase inhibitors” (Orchid Chemicals & Pharmaceuticals Limited, priority 2007, dated 2013).

How the values were obtained:
acetylated Tubulin = experiment: Tubulin acetylation, sandwich ELISA in HCT116 lysate; type: cell-based; details: HCT116, 4 hours
Description: (§1) Acetylated histone (H3), acetylated Tubulin and p21 levels were detected in cell lysate by sandwich ELISA method (Cell Signaling Technology, USA, Cat No: 7232, 7204 & 7167 respectively) by following manufacturer's instructions. Briefly, colon cancer cells (HCT116. 10,000/well) were incubated with test compound (1 and 10 μM) or medium (control) for 4 hours at 37° C. in CO2 incubator. The incubation lasted 18 hours for p21 induction. After incubation, cell lysates were prepared in cell lysis buffer by sonication on ice. The lysates were collected after centrifugation and subjected to ELISA test procedure. 100 μL of each diluted cell lysate in dilution buffer (1:1) was added to appropriate capture antibody coated microwells and incubated overnight at 4° C. After washing, 100 μL of detection antibody was added for 1 hour at 37° C. After second washing, 100 μL of HRP-linked secondary antibody was added for 30 min at 37° C. Finally, after appropriate washing, 100 μL of TMB substrate was added for 10 min at 37° C. followed by 100 μL of stop solution. The absorbance of individual wells was read using a spectrophotometer at 450 nm (A450).

recombinant HDAC1 enzyme = recombinant HDAC1 enzyme (Homo sapiens (Human), UniProt Q13547); experiment: HDAC1 inhibitory activity (isoform selectivity); type: biochemical; details: read-out: HDAC1 inhibition (IC50)
recombinant HDAC1 enzyme, sequence (Q13547 whole entry, canonical isoform): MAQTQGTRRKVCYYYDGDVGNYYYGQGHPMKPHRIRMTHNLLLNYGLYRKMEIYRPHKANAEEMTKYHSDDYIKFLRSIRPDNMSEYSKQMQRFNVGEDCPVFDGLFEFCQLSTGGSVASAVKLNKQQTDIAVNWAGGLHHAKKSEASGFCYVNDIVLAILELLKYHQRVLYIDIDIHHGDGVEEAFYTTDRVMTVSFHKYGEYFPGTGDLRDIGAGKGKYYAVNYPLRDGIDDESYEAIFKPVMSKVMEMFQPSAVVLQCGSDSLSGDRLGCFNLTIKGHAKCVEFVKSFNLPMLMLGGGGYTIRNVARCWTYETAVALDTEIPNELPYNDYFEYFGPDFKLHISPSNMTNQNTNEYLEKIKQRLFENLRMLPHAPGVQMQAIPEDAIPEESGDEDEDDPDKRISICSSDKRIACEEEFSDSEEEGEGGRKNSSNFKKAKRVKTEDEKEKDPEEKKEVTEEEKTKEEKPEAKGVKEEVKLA
Description: The assay was carried out, as previously described using recombinant HDAC1 enzyme (BIOMOL, USA) and following manufacturer's instructions.

p21 = p21 induction, sandwich ELISA in HCT116 lysate; type: cell-based; details: HCT116, 18 hours
Description: as §1

NCIH460 (lung) cells = experiment: Anti-cancer screen (MTT), NCIH460; type: cell-based; details: Homo sapiens, NCI-H460, NCIH460, 48 hours, MTT
Method in brief: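 Growth inhibition is measured by MTT reduction: after 48 h drug exposure at 0.01 to 100 μM, cells receive MTT for 3 h and dissolved formazan is read at 570 nm, with a time-zero plate read when compounds are added.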

Compound: COc1ccc(/C=C(/C(=O)NCc2ccc(C(=O)Nc3ccccc3N)cc2)c2ccc(F)cc2)cc1OC [Compound 19, N-(2-Aminophenyl)-4-((3-(3,4-dimethoxyphenyl)-2-(4-fluorophenyl)acrylamido)methyl)benzamide]
- Tubulin acetylation (Fold increase) (acetylated Tubulin; 1 μM): 1.9 Fold increase
- Tubulin acetylation (Fold increase) (acetylated Tubulin; 10 μM): 4.4 Fold increase
- IC50 (recombinant HDAC1 enzyme): 0.042 µM
- P21 induction (Fold increase) (p21; 1 μM): 1.6 Fold increase
- P21 induction (Fold increase) (p21; 10 μM): 2.4 Fold increase
- GI50 (NCIH460 (lung) cells; read-out: Cell growth inhibition NCIH460 (Lung) GI50): 2.5 µM
- LC50 (NCIH460 (lung) cells; read-out: Cell growth inhibition NCIH460 (Lung) LC50): 70 µM
- IC (TGI) (NCIH460 (lung) cells; read-out: Cell growth inhibition NCIH460 (Lung) TGI): 8 µM
